Data reported in US20060122222A1, “Heterocycle substituted carboxylic acids” (The Institutes for Pharmaceutical Discovery, LLC, priority 2004, published 2006).

Row | melting point | Structure (SMILES)
1 | 148 °C (dec.) | O=C(O)[C@@H]1CSC(c2ccc(-c3ccc(-c4c(Cc5ccccc5)oc5ccccc45)cc3)cc2)N1 (mixture of isomers) [Example 38, (2RS, 4R)-2-[4′-(2-Benzylbenzofuran-3-yl)biphen-4-yl]thiazolidine-4-carboxylic acid]
2 | 135 to 137 °C (dec.) | O=C(O)[C@@H]1CSC(c2ccc(-c3ccc(-n4ccc5ccccc54)cc3)cc2)N1 (stereo in doubt) [Example 27, 2-(4′-Indol-1-yl-biphen-4-yl)thiazolidine-4-carboxylic acid]
3 | 220 to 223 °C | O=C(O)C(=O)Nc1cc(-c2ccc(-c3cccc4c3oc3ccccc34)cc2)cn(Cc2ccccc2)c1=O [Example 4, N-[1-Benzyl-5-(4-dibenzofuran-4-yl-phenyl)-2-oxo-1,2-dihydro-pyridin-3-yl]-oxalamic acid]
4 | 289 to 292 °C | CCc1ccc(-c2sc(NC(=O)c3ccc(S(=O)(=O)N4CCCC4C(=O)O)cc3)nc2-c2ccc(Cl)cc2)cc1 (stereo not drawn) [Example 5, 1-{4-[4-(4-Chloro-phenyl)-5-(4-ethyl-phenyl)-thiazol-2-ylcarbamoyl]-benzenesulfonyl}-pyrrolidine-2-carboxylic acid]
5 | 205 °C (dec.) | O=C(O)CCNc1cc(-c2ccc(-c3cccc4c3oc3ccccc34)cc2)nc(Cc2ccccc2)n1 [Example 45, 3-[2-Benzyl-6-(4-dibenzofuran-4-yl-phenyl)-pyrimidin-4-ylamino]-propionic acid]
6 | 210 °C (dec.) | O=C(O)CCNc1cc(-c2ccc(-c3cccc4c3oc3ccccc34)cc2)nc(-c2ccccc2)n1 [Example 46, 3-[2-phenyl-6-(4-dibenzofuran-4-yl-phenyl)-pyrimidin-4-ylamino]-propionic acid]
